According to patent US10479782B2, “Forms of lumacaftor and processes for the preparation thereof” (Mylan Laboratories LImited, priority 2015, dated 2019):

Assays:
[1] = Storage stability, physical (PXRD analysis); format: physicochemical
Protocol: Amorphous lumacaftor as prepared by methods herein may be characterized as amorphous by powder X-ray diffraction (PXRD). Thus, samples of amorphous lumacaftor were analyzed by X-ray diffraction on a BRUKER D-8 Discover powder diffractometer equipped with a goniometer of θ/2θ configuration and Lynx Eye detector. The Cu-anode X-ray tube was operated at 40 kV and 30 mA. The experiments were conducted over the […] of 2.0°-50.0°, 0.030° step size, and 0.4 seconds step time.
(§1) Another aspect of the present invention provides a crystalline lumacaftor acetic acid solvate. The crystalline lumacaftor acetic acid solvate prepared by methods disclosed herein may be characterized by PXRD. Thus, PXRD analyses of the crystalline lumacaftor acetic acid solvate were carried out on a PANalytical, X'Pert PRO powder diffractometer equipped with goniometer of θ/θ configuration and X'Celerator detector. The Cu-anode X-ray tube was operated at 40 kV and 30 mA. The experiments were conducted over the 2θ range of 2.0°-50.0°, 0.030° step size, and 50 seconds step time.
as §1, with “The” for “Another aspect of the present invention provides a crystalline”, “ethyl acetate” for “acetic acid solvate. The crystalline lumacaftor acetic acid”, “the” for “the crystalline”, “ethyl acetate” for “acetic acid”, “is” for “was”, “0.0300” for “0.030°”
The physical and chemical stabilities of the crystalline lumacaftor acetic acid solvate and the crystalline lumacaftor ethyl acetate solvate were determined by storing samples of each at 40° C./75% relative humidity (RH) and at 25° C./60% RH for six months. The samples were tested for stability by PXRD analysis and for purity by HPLC analysis.
(§2) As an example, Table 1 below provides data collected on amorphous lumacaftor.
(§3) As another example, Table 2 below provides data collected on crystalline lumacaftor ethyl acetate solvate and the crystalline lumacaftor acetic acid solvate.

[2] = Storage stability, chemical (purity by HPLC analysis); format: physicochemical
Protocol: Thus, in addition to PXRD analyses, HPLC analyses were also performed. HPLC separations may be performed on an HPLC column and detector system, such as an Kromasil 100 C18 column (150×4.6 mm, 3.5 μm) or its equivalent using a UV detector set at 220 nm with a column oven temperature of about 30° C. A flow rate of 1.0 mL/min with an injection volume of 10 μL may be used, with a run time of approximately 35 minutes.
[…] The samples were tested for stability by PXRD analysis and for purity by HPLC analysis.
as §2, §3

[3] = storage at 25° C./60% RH, 1 months
[4] = storage at 25° C./60% RH, 2 months
[5] = storage at 25° C./60% RH, 3 months
[6] = storage at 25° C./60% RH, 15 days
[7] = storage at 25° C./60% RH, Initial
[8] = stored for 3 months at 5±3° C. and 25° C./60% relative humidity (RH)
[9] = storage at 25° C./60% RH, 6 months
[10] = storage at 40° C./75% RH, 1 months
[11] = storage at 40° C./75% RH, 2 months
[12] = storage at 40° C./75% RH, 3 months
[13] = storage at 40° C./75% RH, 6 months
[14] = storage at 40° C./75% RH, 15 days
[15] = storage at 40° C./75% RH, Initial
[16] = stored for 6 months at 25° C./60% and 40° C./75% relative humidity (RH)

PXRD [1, 3] | PXRD [1, 4] | PXRD [1, 5] | PXRD [1, 6] | PXRD [1, 7] | HPLC Purity (%) [2, 3] [%] | HPLC Purity (%) [2, 4] [%] | HPLC Purity (%) [2, 5] [%] | HPLC Purity (%) [2, 6] [%] | HPLC Purity (%) [2, 7] [%] | PXRD [1, 9] | PXRD [1, 10] | PXRD [1, 11] | PXRD [1, 12] | PXRD [1, 13] | PXRD [1, 14] | PXRD [1, 15] | HPLC Purity (%) [2, 9] [%] | HPLC Purity (%) [2, 10] [%] | SMILES | change in PXRD pattern on storage [1, 16] | other results
Stable | Stable | Stable | Stable | Amorphous | 99.63 | 99.60 | 99.65 | 99.67 | 99.65 | – | – | – | – | – | – | – | – | – | Cc1ccc(NC(=O)C2(c3ccc4c(c3)OC(F)(F)O4)CC2)nc1-c1cccc(C(=O)O)c1 [Amorphous lumacaftor, 3-(6-(1-(2,2-difluorobenzo[d][1,3]dioxol-5-yl)cyclopropanecarboxamido)-3-methylpyridin-2-yl)benzoic acid] | – | PXRD ([1]; storage at 5 ± 3° C., 1 months): Stable; PXRD ([1]; storage at 5 ± 3° C., 2 months): Stable; PXRD ([1]; storage at 5 ± 3° C., 3 months): Stable; PXRD ([1]; storage at 5 ± 3° C., 15 days): Stable; PXRD ([1]; storage at 5 ± 3° C., Initial): Amorphous; change in PXRD pattern on storage [1, 8]: no change in PXRD pattern; HPLC Purity (%) ([2]; storage at 5 ± 3° C., 1 months): 99.61%; HPLC Purity (%) ([2]; storage at 5 ± 3° C., 2 months): 99.63%; HPLC Purity (%) ([2]; storage at 5 ± 3° C., 3 months): 99.64%; HPLC Purity (%) ([2]; storage at 5 ± 3° C., 15 days): 99.67%; HPLC Purity (%) ([2]; storage at 5 ± 3° C., Initial): 99.65%; chemical degradation on storage [2, 8]: no significant chemical degradation
Stable | Stable | Stable | Stable | Crystalline | 99.92 | 99.92 | 99.89 | 99.92 | 99.84 | Stable | Stable | Stable | Stable | Stable | Stable | Crystalline | 99.93 | 99.93 | Cc1ccc(NC(=O)C2(c3ccc4c(c3)OC(F)(F)O4)CC2)nc1-c1cccc(C(=O)O)c1 [Lumacaftor acetic acid solvate, 3-(6-(1-(2,2-difluorobenzo[d][1,3]dioxol-5-yl)cyclopropanecarboxamido)-3-methylpyridin-2-yl)benzoic acid] | neither the lumacaftor ethyl acetate solvate nor the lumacaftor acetic acid solvate display any significant chemical degradation or any change in PXRD pattern | HPLC Purity (%) [2, 11]: 99.93%; HPLC Purity (%) [2, 12]: 99.89%; HPLC Purity (%) [2, 13]: 99.92%; HPLC Purity (%) [2, 14]: 99.92%; HPLC Purity (%) [2, 15]: 99.84%; chemical degradation on storage [2, 16]: neither the lumacaftor ethyl acetate solvate nor the lumacaftor acetic acid solvate display any significant chemical degradation
Stable | Stable | Stable | Stable | Crystalline | 99.93 | 99.95 | 99.92 | 99.95 | 99.97 | Stable | Stable | Stable | Stable | Stable | Stable | Crystalline | 99.95 | 99.94 | Cc1ccc(NC(=O)C2(c3ccc4c(c3)OC(F)(F)O4)CC2)nc1-c1cccc(C(=O)O)c1 [Lumacaftor ethyl acetate solvate, 3-(6-(1-(2,2-difluorobenzo[d][1,3]dioxol-5-yl)cyclopropanecarboxamido)-3-methylpyridin-2-yl)benzoic acid] | neither the lumacaftor ethyl acetate solvate nor the lumacaftor acetic acid solvate display any significant chemical degradation or any change in PXRD pattern | HPLC Purity (%) [2, 11]: 99.95%; HPLC Purity (%) [2, 12]: 99.95%; HPLC Purity (%) [2, 13]: 99.95%; HPLC Purity (%) [2, 14]: 99.95%; HPLC Purity (%) [2, 15]: 99.97%; chemical degradation on storage [2, 16]: neither the lumacaftor ethyl acetate solvate nor the lumacaftor acetic acid solvate display any significant chemical degradation
